Tests used:
HepG2 cells [1] = test: MTT cell viability assay; format: cell-based; details: Homo sapiens, HepG2, 24 h, read-out: IC50, cell proliferation
Description: (§1) Cell viability was determined by detecting the absorbance at 570 nm in a microquant plate reader (Thermo Fisher), triplicate wells were analyzed at each dose.

MHCC-97H cells = test: MTT cell viability assay; format: cell-based; details: Homo sapiens, MHCC97H, 24 h, read-out: IC50, cell proliferation
Description: as §1

MHCC-97L cells = test: MTT cell viability assay; format: cell-based; details: Homo sapiens, MHCC97L, 24 h, read-out: IC50, cell proliferation
Description: as §1

B16-F10 cells = test: MTT cell viability assay; format: cell-based, murine; details: Mus musculus, B16-F10, 24 h, read-out: IC50, cell proliferation
Description: as §1

L02 cells = test: MTT cell viability assay, normal liver cells; format: cell-based; details: L02 normal human liver cells, 24 h
Description: as §1

HUVEC cells = test: MTT cell viability assay, endothelial cells; format: cell-based; details: Homo sapiens, 24 h
Description: as §1

[2] = tested on: nine cancer cell lines (MHCC-97H, MHCC-97L, HepG2, M619, MDA-MB-231, MCF-7, HT29, SW620, B16-F10); test: MTT cell viability assay, span over nine cancer cell lines; format: cell-based; details: 24 h, read-out: IC50 to suppress cell proliferation, span over nine cancer cell lines
Description: as §1

HepG2 cells [3] = test: Transwell matrigel invasion assay; format: cell-based, human; details: HepG2, 5 μM, 24 h; control 88 ± 5
Description: An invasion assay was carried out using 24-well plate. The […] pore-sized transwell inserts were coated with matrigel at 1 mg/mL on the upper chamber. The lower chamber was filled with medium containing 20% FBS as chemoattractant agents. The coated filter and upper chamber were laid over the lower chamber. […] After incubation for 24 h at 37°C, cells were fixed in methanol for 20 min. The cells on the inner layer were softly removed with a cotton swab, and the adherent cells on undersurface of the insert were stained with 0.1% crystal violet dye for 15 min. The filters were washed with PBS and images were taken. The invading cells were counted and photographed under a light microscope (Zeiss, Germany) at × 200 magnification. Five fields were counted per filter in each group and the experiment was conducted in triplicate.

HepG2 cells [4] = test: Wound healing migration assay; format: cell-based, human; details: HepG2, 24 h after wounding; UA 5 μM, US597 0.2, 1, 5 μM
Description: SW620, B16-F10 and HepG2 cells (5 × 10^5 cells per well) were plated in 6-well plates for 24 h, a perpendicular scratch wound was generated by scratching with a 10 μL pipette tip. […] Cells were photographed using a light microscope (Zeiss, Germany) at 0 and 24 h after the drug treatment. The distance that cells migrated through the scribed area was determined by measuring the wound width at 24 h after treatment, and subtracting it from the wound width at 0 h. Experiments were repeated at least three times.

ICAM-1 [5] = test: qRT-PCR of mRNA in IL-1β-stimulated HUVECs; format: cell-based, human; details: IL-1β 1 ng/mL 4 h, then 24 h, UA 5 μM, US597 0.2, 1, 5 μM
VCAM-1 [6] = test: qRT-PCR of mRNA in IL-1β-stimulated HUVECs; format: cell-based, human; details: IL-1β 1 ng/mL 4 h, then 24 h, 5 μM
ICAM-1 [7] = test: Flow cytometry of surface expression on IL-1β-stimulated HUVECs; format: cell-based, human; details: 5 μM, 24 h
Description: (§2) Cells expression of ICAM-1, VCAM-1, E-selectin, integrin α4, α5, α6 and β1 were performed via flow cytometry. […] After incubation, the cells were washed twice with PBS and collected for staining. The cells and primary antibodies were incubated at 4°C for 20 min in the dark. After washing with staining buffer, cell adhesion molecule (ICAM-1, VCAM-1 and E-selectin) and integrins (integrin α6 and β1) expression on cell-surface were measured by BD FACSAriaIII flow cytometry. The data were processed by FlowJo software and expressed as the mean fluorescent intensities.

VCAM-1 [8] = test: as above; format: cell-based, human; details: 5 μM, 24 h
Description: as §2

[9] = tested on: integrin α6, integrin β1, FAK, Src, paxillin and PTEN; test: Western blot of focal adhesion signaling proteins in HepG2 cells; format: cell-based, human; details: 24 h, UA 5 μM, US597 0.2, 1, 5 μM
Description: Cell dishes were washed with cold phosphate-buffered saline and treated with lysis buffer for several seconds at an ice-cold bath, and then cell lysates were clarified by centrifugation at 12,000 g for 5 min under 4°C and the supernatants were recovered. The concentrations of proteins were determined by the BCA method. Samples with equivalent amounts of proteins were resolved by SDS-PAGE using a 10% gel. Proteins were transferred to a polyvinyldene difluoride (PVDF) membrane. The membranes were washed for ten minutes with TBS (20 mM Tris, 160 mM NaCl) and were blocked by blocking solution (10 mM Tris-HCl (pH 7.4), 125 mM NaCl, 0.1% Tween 20, and 5% skim milk). The blots were washed three times with TBST(20 mM Tris, 160 mM NaCl, 0.1% Tween 20), and they were incubated with specific primary antibodies diluted 1:1000 in TBST solution overnight at 4°C. Subsequently, the blots were washed three times with TBST (20 mM Tris, 160 mM NaCl, 0.1% Tween 20), and then the blots were incubated with secondary antibody (horseradish peroxidase conjugated goat anti-rabbit-IgG) diluted 1:5000 in TBST solution for 2 h at 37°C. […] Chemiluminescent signals were generated using a Super Signal West Pico Chemiluminescent Substrate kit (Pierce), and detected by using the ChemiDoc XRS system (Bio-Rad). The target proteins expression was quantified by use of Image Lab analysis software (Bio-Rad).

[10] = tested on: B16-F10 melanoma lung metastasis; test: B16-F10/C57BL/6 mouse melanoma lung metastasis model; format: in vivo, C57BL/6 mice; details: 80 mg/kg/day oral, 28 days
Description: (§3) To establish the lung metastasis model, B16-F10 cells were harvested, washed with serum-free RPMI 1640 and resuspended to give the appropriate concentrations in PBS, and injected into the tail vein of C57BL/6 mice at a density of 5 × 10^4/200 μL. […] Mice weight was measured every four days for 7 times. Mice were sacrificed (n = 6) at the 28st days after tumor inoculation. The heart, liver, spleen, lung, kidney and small intestine were excised, washed with PBS, and fixed in 10% neutral buffered formalin, and these tissues were then paraffin embeddedand stained with hematoxylin and eosin (H&E). The number of surface tumor nodules was determined by visual inspection using a magnifying glass, and histological observations were performed under a microscope (Zeiss, Germany).

[11] = Toxicity in tumor metastatic mice (body weight, histopathology, blood analysis); format: in vivo, C57BL/6 mice; details: 28 days
Description: as §3

ICAM-1 [12] = test: ICAM-1 immunohistochemistry of lung tissue; format: in vivo, C57BL/6 mice; details: UA group and high dose US597 group, P < 0.01
Description: Frozen sections (6 μm) were stained with anti-ICAM-1 antibody as previously described. ICAM-1 expression in lung tissue was performed with avidin-biotin complex (ABC) method. Results for ICAM-1 positive cells are shown as × 200 magnification.

- IC50 (HepG2 cells [1]): 33.1 µM
- IC50 (B16-F10 cells): 31.7 µM
- IC50 [2]: 31.7 to 60.1 µM
SMILES: C[C@H]1[C@H](C)CC[C@]2(C(=O)O)CC[C@]3(C)C(=CC[C@@H]4[C@@]5(C)CC[C@H](O)C(C)(C)[C@@H]5CC[C@]43C)[C@H]12 [UA, 3β-hydroxy-urs-12-en-28-oic acid]
- IC50 (MHCC-97H cells): 36.1 µM
- IC50 (MHCC-97L cells): 32.2 µM
- IC50 (L02 cells): 41.9 µM
- IC50 (HUVEC cells): 51.1 µM
- average number of invaded cells (HepG2 cells [3]): 75 ± 3
- cell migration in wound healing assay (HepG2 cells [4]): showed less migration in wound area
- ICAM-1 mRNA expression (ICAM-1 [5]): inhibited the induction
- VCAM-1 mRNA expression (VCAM-1 [6]): almost no change
- ICAM-1 expression, % of control (ICAM-1 [7]): no significant effect
- VCAM-1 expression, % of control (VCAM-1 [8]): no significant effect
- protein expression of integrin α6, integrin β1, FAK, Src, paxillin and PTEN [9]: the effect was prominent
- inhibitory rate, number of lung metastatic nodules [10]: 14.45%
- LYMPH ([11]; 80 mg/Kg, normal range 0.9 – 9.3, control 6.82 ± 2.17): 3.65 ± 1.48 × 10^9/L
- WBC ([11]; 80 mg/Kg, normal range 1.8 – 10.7, control 9.31 ± 1.28): 7.14 ± 0.33 × 10^9/L
- RBC ([11]; 80 mg/Kg, normal range 6.36 – 9.42, control 9.04 ± 0.27): 8.84 ± 2.31 × 10^12/L
- HGB ([11]; 80 mg/Kg, normal range 110.0 – 151.0, control 136.42 ± 1.15): 131.56 ± 0.89 g/L
- PLT ([11]; 80 mg/Kg, normal range 592 – 2972, control 1583 ± 126): 1461 ± 251 × 10^9/L
- animal body loss ([11]; 80 mg/kg daily oral): did not induce significant animal body loss
- histopathology of heart, liver, spleen, kidney and small intestine ([11]; 80 mg/kg daily oral, H&E): no remarkable histopathological abnormalities or lesions
- ICAM-1 expression in lung tissue vs control (ICAM-1 [12]): significantly decreased
